System: lashes and adjacent hairs of patients
Test: Observation of eyelash/hair growth in glaucoma patients treated in one eye
Type: in vivo, human
Conditions: glaucoma patient treated in one eye only
Excerpt: In the course of treating patients having glaucoma, treatment may only be appropriate in one eye. […] The lash appearance on the lids of the treated eyes would have appeared quite attractive if it represented a bilateral phenomenon. As a result of its asymmetric nature, the long lashes on one side could be construed as disturbing from a cosmetic standpoint. A systemic examination was preformed as a result of the asymmetric phenomenon. It soon became apparent that this altered appearance was not an isolated finding. […] Definite differences could be identified to varying degrees in the lashes and adjacent hairs of all patients who were taking the drug on a unilateral basis for longer than 6 months.
The changes in the lashes were apparent on gross inspection in several patients once attention was focused on the issue. In those with light colored hair and lashes, the differences were only seen easily with the aid of the high magnification and lighting capabilities of the slit lamp biomicroscope. In the course of glaucoma follow-up examination, attention is generally immediately focused on the eye itself. As a result of the high power magnification needed only one eye is seen at a time and the eye is seen at a high enough power that the lashes are not in focus. […]

Compound: CCNC(=O)CCC/C=C\C[C@@H]1[C@@H](/C=C/[C@@H](O)CCc2ccccc2)[C@H](O)C[C@@H]1O [bimatoprost]
- lash appearance in treated eye versus non-treated eye: longer, thicker, and fuller

Source: patent US8063033B2, “Therapeutic beta-lactams” (Allergan, Inc., priority 2008, dated 2011)
